In PMC6800809 (ChemMedChem, 2019):
Values after ≈ are worked out from the molar mass of the structure shown.

Legend:
HepG2 cells = experiment: HepG2 cytotoxicity
MbtA = settings: 44.2 μM MbtA, ligand 0.75 mM
HepG2 cytotoxicity = settings: human, HepG2 cells
M. tuberculosis H37Rv = experiment: MIC determination against M. tuberculosis H37Rv in liquid medium; assay type: cell-based; settings: Mycobacterium tuberculosis, 120 h, read-out: H37Rv MIC90

O=[N+]([O-])c1cc(C(F)(F)F)ccc1NCCc1c[nH]c2ccc(O)cc12 [Compound 5, 5-hydroxy-indol-3-ethylamino-(2-nitro-4-trifluoromethyl)benzene]
HepG2 cytotoxicity, IC50 towards cells grown in both media (HepG2 cells; glucose and galactose media): relatively low cytotoxicity
Ratio (Glu/Gal) (HepG2 cells; ratio of HepG2 IC50 in glucose to galactose medium (mitochondrial toxicity)): 1.2
IC50 (RAW 264.7 cells): 29 µM
Response in STD and Water-LOGSY experiments (MbtA): positive responses

CO[C@H]1/C=C/O[C@@]2(C)Oc3c(C)c(O)c4c(O)c(c(/C=N/N5CCN(C)CC5)c(O)c4c3C2=O)NC(=O)/C(C)=C\C=C\[C@H](C)[C@H](O)[C@@H](C)[C@@H](O)[C@@H](C)[C@H](OC(C)=O)[C@@H]1C [Rifampicin, reference compound]
IC50 at 2 days (HepG2 cytotoxicity): > 100 µM
MIC90 (M. tuberculosis H37Rv): 0.1 µM (≈ 0.0823 µg/mL)
